The subject of assay [1] is C57BL/6 mouse. In words: Vitamin D-induced calcification mouse animal model (aortic valve histopathology). In kind it is in vivo. The settings on record: for blackened area (von Kossa staining, increased calcification): Figure 2, versus high-dose vitamin D3-induced calcification group (B); for Number of inflammatory cells (cells/mm^2): aortic valve area; for Number of inflammatory cells (cells/mm^2) / Mean thickness (µm): HE staining; for Number of inflammatory cells (cells/mm^2) / Mean thickness (µm) / Calcified area (%/mm^2): vitamin D3 6.5x10^5 IU/Kg s.c. for 3 days, compound orally once a day for 8 days, mouse; for Mean thickness (µm) / Calcified area (%/mm^2): aortic valve; for Calcified area (%/mm^2): von Kossa staining. How it is done: (§1) Individual heart samples were cut crosswise, one section at a time, around the origin/root region of the ascending aorta. Histological sections were then prepared from all the samples received. All cross-sectioned cardiac-aortic valve sections were refixed in 10% neutral buffered formalin for 24 hours to prepare histological samples. After the samples were embedded in paraffin, two serial sections of 3 to 4 µm thickness were prepared on each paraffin block and stained with hematoxylin & eosin (HE) for general histopathology or von Kossa (VK) for calcium deposition, respectively. To observe more detailed changes, a computer-assisted image analysis program and a histological camera system were used to calculate the mean aortic valve thickness (µm) and the number of inflammatory cells infiltrating the aortic valve area (cells/mm^2) in HE staining, and the mean calcified aortic valve area (%/mm^2) in VK staining in this histopathological analysis.
Experimental animals were prepared similarly to Experimental Example 3. Excluding the normal group, four groups were administered with high-dose (6.5x10^5 IU/Kg) vitamin D3 subcutaneously once a day for a total of 3 days to induce calcification. The compounds of Examples 1 and 6 were administered orally together from the first day of vitamin D3 administration, and then administered once a day for 5 more days without vitamin D3 administration, for a total of 8 days.
Samples were obtained and analyzed in the same manner as in Experimental Example 3.

The target of another assay is T1, TNAP (Homo sapiens, UniProt P05186).
T1 sequence (P05186 18-502 limits assumed): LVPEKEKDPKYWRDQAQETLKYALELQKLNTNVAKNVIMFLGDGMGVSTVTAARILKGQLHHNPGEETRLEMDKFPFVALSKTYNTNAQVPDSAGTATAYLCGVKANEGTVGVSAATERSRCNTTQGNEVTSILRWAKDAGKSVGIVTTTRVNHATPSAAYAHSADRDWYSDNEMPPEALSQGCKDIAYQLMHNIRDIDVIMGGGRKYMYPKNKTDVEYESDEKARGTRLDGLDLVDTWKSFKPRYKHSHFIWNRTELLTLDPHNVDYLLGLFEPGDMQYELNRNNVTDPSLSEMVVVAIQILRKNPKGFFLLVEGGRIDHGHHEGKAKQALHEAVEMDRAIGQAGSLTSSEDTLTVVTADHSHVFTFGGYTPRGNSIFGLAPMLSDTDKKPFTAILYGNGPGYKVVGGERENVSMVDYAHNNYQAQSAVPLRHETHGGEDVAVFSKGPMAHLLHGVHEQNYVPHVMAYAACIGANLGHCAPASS
The assay is described as follows: TNAP inhibitory activity, colorimetric assay (alkaline phosphatase assay kit ab83369, pNPP substrate). Type of assay: biochemical. The following applies: TNAP enzyme, 2 hours at room temperature, absorbance 405 nm.

For assay [2], the system named is C57BL/6 mouse. In words: Warfarin-induced calcification mouse animal model (aortic valve histopathology). In kind it is in vivo. The following applies: for blackened area (von Kossa staining, increased calcification): Figure 1, versus warfarin and vitamin K1-induced calcification group (B); for Number of inflammatory cells (cells/mm^2): aortic valve area; for Number of inflammatory cells (cells/mm^2) / Mean thickness (µm): HE staining; for Number of inflammatory cells (cells/mm^2) / Mean thickness (µm) / Calcified area (%/mm^2): warfarin and vitamin K1 for 4 weeks, C57BL/6 mouse; for Mean thickness (µm) / Calcified area (%/mm^2): aortic valve; for Calcified area (%/mm^2): von Kossa staining. The protocol:
• 1. Animal: C57BL/6 mouse (OrientBio, Sungnam-city, Korea) • Gender: male • Age on arrival: C57BL/6 (6 weeks) • Raising: Animals were raised in filter cap polycarbonate cages, 5 animals each, in a temperature (25°C) and humidity (45-55%) controlled sterile clean room. The light:dark cycle was 12 hours:12 hours, and sterilized food and water were provided with free access. • Guidelines: All animals were treated in accordance with the Daegu Haany University Institutional Animal Care and Use Committee (Gyeongsan, Korea). • 2. General experimental methods: In vivo drug administration
After acclimating the mice for one week, they were divided into each group and tested.
After acclimation for one week, the groups were randomized.
The mice were divided into four groups: a group that received no treatment (A), a group that was treated with warfarin and vitamin K1 to induce calcification (B), a group that was administered orally with 0.5% CMC (carboxymethyl Cellulose) (C), and a group that was administered with the test compound. The compounds of Example 1 (K) and Example 6 (L) were selected as the test compound.
All groups, except the untreated control group (Normal), were administered both warfarin and vitamin K1 at 8:00 AM and warfarin alone at 8:00 PM for 4 weeks.
Heart tissue samples were obtained from each group and used for analysis.
as §1

Another assay concerns saos-2 cells. The assay is described as follows: Anticalcification efficacy in saos-2 cells (osteogenic medium, Alizarin Red staining). In kind it is cell-based. The following applies: test compound 1 µM, 7 days osteogenic medium, Alizarin Red absorbance 540 nm; for inhibition at 1 µM: Homo sapiens, 168 h, read-out: calcification inhibition. The method in brief: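 Saos-2 cells at 80–90% confluence induced for 7 days in osteogenic medium (DMEM, 100 nM dexamethasone, 10 mM β-glycerophosphate, 0.05 mM ascorbic acid), compound (0.5, 1, 5, 10 […]) added with each medium change. Alizarin Red staining eluted with cetylpyridinium chloride, A540 read; inhibition taken against OM-only absorbance.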

The term IC50 denotes the concentration that inhibits the measured activity by half. High values mean lower potency, low ones higher potency. A word on the inhibition: it is the change of the read-out against control, counted positive when it falls.

On to “5-chloro-2-methoxy-N-(5-oxo-6,7-dihydro-5H-pyrrolo[3,4-b]pyridine-3-yl)benzenesulfonamide [Example 1]”, for which, in the assay with C57BL/6 mouse [1], the “blackened area (von Kossa staining, increased calcification)” value is recorded as “significantly reduced”; the “Number of inflammatory cells (cells/mm^2)” value (shortened to “Number of inflammatory cells”) was found to be 110.89±21.64 cells/mm^2; the “Mean thickness (µm)” value was determined as 64.26±12.34 µm; the “Calcified area (%/mm^2)” value is given as 7.95±1.16 %/mm^2. Besides, the half-maximal inhibitory concentration (IC50) at TNAP lay within 0.01 to 0.1 µM. In addition, in the assay on C57BL/6 mouse [2], the “blackened area (von Kossa staining, increased calcification)” value was “significantly reduced”; the “Number of inflammatory cells” value is given as 144.40±43.12 cells/mm^2; the “Mean thickness (µm)” value is 112.42±10.81 µm; the “Calcified area (%/mm^2)” value came out at 2.45±0.64 %/mm^2. In addition, in the assay on saos-2 cells, the calcification inhibition entry was “A (inhibition of 50% or more was expressed as "A")”.

With `COc1ccc(Cl)cc1S(=O)(=O)Nc1cnc2c(c1)C(=O)NCC2` [Example 6, 5-chloro-2-methoxy-N-(5-oxo-5,6,7,8-tetrahydro-1,6-naphthyridine-3-yl)benzenesulfonamide], in the assay with C57BL/6 mouse [1], the “blackened area (von Kossa staining, increased calcification)” value is recorded as “significantly reduced”; the “Number of inflammatory cells” value came to 58.89±17.32 cells/mm^2; the “Mean thickness (µm)” value was 51.76±10.39 µm; the “Calcified area (%/mm^2)” value is 2.44±0.92 %/mm^2. This compound returned an IC50 on TNAP of no more than 0.01 µM. In the assay with C57BL/6 mouse [2], the “blackened area (von Kossa staining, increased calcification)” value was “significantly reduced”; the “Number of inflammatory cells” value worked out at 80.40±14.90 cells/mm^2; the “Mean thickness (µm)” value turned out to be 91.69±15.70 µm; the “Calcified area (%/mm^2)” value is listed as 1.16±0.30 %/mm^2. Moreover, the inhibition at 1 µM in the assay on saos-2 cells was no less than 50%.

In turn, `COc1ccc(Cl)cc1S(=O)(=O)Nc1cnc2c(c1)CN(C(=O)NCC1CC1)CC2` [Example 116, 3-((5-chloro-2-methoxyphenyl)sulfonamido)-N-(cyclopropylmethyl)-7,8-dihydro-1,6-naphthyridine-6(5H)-carboxamide] showed a concentration for half-maximal inhibition (IC50) against TNAP of 0.01 to 0.1 µM. Further, the inhibition at 1 µM with saos-2 cells was no less than 50%.

Turning to `COc1ccc(Cl)cc1S(=O)(=O)Nc1cnc2c(c1)CN(C(=O)NCCF)CC2` [Example 117, 3-((5-chloro-2-methoxyphenyl)sulfonamido)-N-(2-fluoroethyl)-7,8-dihydro-1,6-naphthyridine-6(5H)-carboxamide], the IC50 at TNAP was in the range of 0.01 to 0.1 µM. Also, the inhibition at 1 µM in the assay with saos-2 cells is no less than 50%.

In turn, `COc1ccc(Cl)cc1S(=O)(=O)Nc1cnc2c(c1)CN(C(=O)CC(C)(C)C)CC2` [Example 118, 5-chloro-N-(6-(3,3-dimethylbutanoyl)-5,6,7,8-tetrahydro-1,6-naphthyridine-3-yl)-2-methoxybenzenesulfonamide] came in with an IC50 against TNAP of 0.01 to 0.1 µM. Also, in the assay on saos-2 cells, the inhibition at 1 µM was no less than 50%.

Take `COc1ccc(Br)cc1S(=O)(=O)Nc1cnc2c(c1)CN(C(=O)CC(C)(C)C)CC2` [Example 119, 5-bromo-N-(6-(3,3-dimethylbutanoyl)-5,6,7,8-tetrahydro-1,6-naphthyridine-3-yl)-2-methoxybenzenesulfonamide]: the half-inhibitory concentration (IC50) on TNAP was 0.01 to 0.1 µM. Moreover, in the assay with saos-2 cells, the inhibition at 1 µM is no less than 50%.

With `COc1ccc(-c2cnn(-c3ccncc3)c2)cc1S(=O)(=O)Nc1cnc2c(c1)C(=O)NCC2` [Example 120, 2-methoxy-N-(5-oxo-5,6,7,8-tetrahydro-1,6-naphthyridine-3-yl)-5-(1-(pyridine-4-yl)-1H-pyrazole-4-yl)benzenesulfonamide], the concentration for half-maximal inhibition (IC50) on TNAP lay within 0.1 to 1 µM. For the same compound, the inhibition at 1 µM in the assay with saos-2 cells was less than 0%.

`COc1ccc(-c2c(C)nn(C)c2C)cc1S(=O)(=O)Nc1cnc2c(c1)C(=O)NCC2` [Example 121, 2-methoxy-N-(5-oxo-5,6,7,8-tetrahydro-1,6-naphthyridine-3-yl)-5-(1,3,5-trimethyl-1H-pyrazole-4-yl)benzenesulfonamide] registered a concentration for half-maximal inhibition (IC50) against TNAP of 0.1 to 1 µM. In addition, the inhibition at 1 µM in the assay on saos-2 cells was less than 0%.

The compound `COc1ccc(-c2cnn(C(C)(C)C)c2)cc1S(=O)(=O)Nc1cnc2c(c1)C(=O)NCC2` [Example 122, 5-(1-(tert-butyl)-1H-pyrazole-4-yl)-2-methoxy-N-(5-oxo-5,6,7,8-tetrahydro-1,6-naphthyridine-3-yl)benzenesulfonamide] returned an IC50 at TNAP of 0.01 to 0.1 µM. Besides, the inhibition at 1 µM in the assay on saos-2 cells is less than 0%.

On to `CCCCn1cc(-c2ccc(OC)c(S(=O)(=O)Nc3cnc4c(c3)C(=O)NCC4)c2)cn1` [Example 123, 5-(1-butyl-1H-pyrazole-4-yl)-2-methoxy-N-(5-oxo-5,6,7,8-tetrahydro-1,6-naphthyridine-3-yl)benzenesulfonamide], for which the IC50 at TNAP lay in the range of 0.01 to 0.1 µM. Besides, the inhibition at 1 µM in the assay with saos-2 cells is no less than 50%.

`COc1ccc(-c2cnn(-c3ccccc3)c2)cc1S(=O)(=O)Nc1cnc2c(c1)C(=O)NCC2` [Example 124, 2-methoxy-N-(5-oxo-5,6,7,8-tetrahydro-1,6-naphthyridine-3-yl)-5-(1-phenyl-1H-pyrazole-4-yl)benzenesulfonamide] showed a half-inhibitory concentration (IC50) on TNAP of 0.1 to 1 µM. In addition, the inhibition at 1 µM in the assay on saos-2 cells was less than 0%.

The values above are taken from patent EP4806894A1, “TNAP INHIBITORY COMPOUND AND USE THEREOF” (Rednvia Co., Ltd., priority 2023, dated 2025).
